Here are results for 50 compounds from paper PMC11995724, “Antibiotic target discovery by integrated phenotypic and activity-based profiling of electrophilic fragments” (Cell chemical biology, 2025).

The series in a line: in vitro. The following applies: human, hek293t cells.
For the compound `Cc1nc2n(n1)CCCC2NC(=O)CCl` (centres unmarked) [7-F12, 2-chloro-N-{2-methyl-5H,6H,7H,8H-[1,2,4]triazolo[1,5-a]pyridin-8-yl}acetamide], the viability – broadly, a read-out of living cells in per cent, often relative to untreated cells – at 48 h, 25 µM was 58.1%.
Consider `Cc1cc(C)c(C(=O)CCl)c(C)c1` [10-C08, 2-chloro-1-(2,4,6-trimethylphenyl)ethan-1-one], for which the viability at 48 h, 25 µM came to 97.8%.
The value for `O=C(CCl)c1ccccn1` [10-J03, 2-chloro-1-(pyridin-2-yl)ethan-1-one] was 94.4%; that for `C=CC(=O)N1CCOC(c2cnn(C)c2)C1` (centres unmarked) [3-K11, 1-[2-(1-methyl-1H-pyrazol-4-yl)morpholin-4-yl]prop-2-en-1-one] was 49.9%; that for `COc1ccc(CCNC(=O)CCl)cc1` [5-H12, 2-chloro-N-[2-(4-methoxyphenyl)ethyl]acetamide] was 0.726%.
On to `C=CC(=O)N1CCC(C(=O)NCc2ccc(-c3n[nH]c(C)n3)cc2)CC1` [3-M21, N-{[4-(5-methyl-1H-1,2,4-triazol-3-yl)phenyl]methyl}-1-(prop-2-enoyl)piperidine-4-carboxamide], for which the viability at 48 h, 25 µM was 56.1%.
As to `Cc1cc(C=C(C#N)C(=O)Nc2ccccc2)c(C)n1CC(C)C` [9-A07, 2-cyano-3-[2,5-dimethyl-1-(2-methylpropyl)-1H-pyrrol-3-yl]-N-phenylprop-2-enamide], the viability at 48 h, 25 µM was determined as 115%.
With `C=CC(=O)N1CCC(C(=O)NC(C)CC2CC2)CC1` (centres unmarked) [3-M05, N-(1-cyclopropylpropan-2-yl)-1-(prop-2-enoyl)piperidine-4-carboxamide] the figure was 53.3%; with `N#CC(=Cc1cccs1)C(=O)Nc1cccc2ccccc12` [9-M22, 2-cyano-N-(naphthalen-1-yl)-3-(thiophen-2-yl)prop-2-enamide], 100%; with `C=CC(=O)NC1(Cc2ccccc2)CC1` [3-P13, N-(1-benzylcyclopropyl)prop-2-enamide], 61.5%.
With `CC(C)CN(C(=O)CCl)C1CC1` [5-D14, 2-chloro-N-cyclopropyl-N-(2-methylpropyl)acetamide] the figure was 1.19%; with `N#CC(=Cc1cccc2ccccc12)C(=O)NCc1ccccc1` [8-O19, N-benzyl-2-cyano-3-(naphthalen-1-yl)prop-2-enamide], 48%; with `CC1=C(c2ccco2)CN(C(=O)CCl)CC1` [5-H05, 2-chloro-1-[5-(furan-2-yl)-4-methyl-1,2,3,6-tetrahydropyridin-1-yl]ethan-1-one], 69.1%.
The value for `CC(Cl)C(=O)NCCCN1CCc2ccccc2C1` (centres unmarked) [7-M11, 2-chloro-N-[3-(1,2,3,4-tetrahydroisoquinolin-2-yl)propyl]propanamide] was 88.4%.
Turning to `O=C(CCl)Nc1cc(-c2ccc3c(c2)CCC3)nn1-c1ccccc1` [6-J10, 2-chloro-N-[3-(2,3-dihydro-1H-inden-5-yl)-1-phenyl-1H-pyrazol-5-yl]acetamide], the viability at 48 h, 25 µM is 0.354%.
With `CC(=O)Nc1ccc(C=C(C#N)C(=O)Nc2cccc(C)c2C)cc1` [9-D19, 2-cyano-N-(2,3-dimethylphenyl)-3-(4-acetamidophenyl)prop-2-enamide] the figure was 107%.
As for `N#CC(=Cc1cccnc1)C(=O)NCc1ccccc1` [9-I14, N-benzyl-2-cyano-3-(pyridin-3-yl)prop-2-enamide], the viability at 48 h, 25 µM came to 113%.
For the compound `N#CC(=Cc1cnn(Cc2ccccc2)c1)C(=O)NC1CCCC1` [9-O14, 3-(1-benzyl-1H-pyrazol-4-yl)-2-cyano-N-cyclopentylprop-2-enamide], the viability at 48 h, 25 µM is 80.2%.
With `Cc1ccccc1N1C(=O)CSC1=C(C#N)C(=O)N1CCCCC1` [8-B12, 2-[3-(2-methylphenyl)-4-oxo-1,3-thiazolidin-2-ylidene]-3-oxo-3-(piperidin-1-yl)propanenitrile] the figure was 113%; with `O=C(CCl)Cc1ccc(F)c(F)c1` [10-O17, 1-chloro-3-(3,4-difluorophenyl)propan-2-one], 28%; with `C=CC(=O)Nc1cc(NC(=O)C2CC3CCC2CC3)ccc1F` (centres unmarked) [1-C17, N-[4-fluoro-3-(prop-2-enamido)phenyl]bicyclo[2.2.2]octane-2-carboxamide], 2.94%.
With `C=CC(=O)NC[C@@H]1C[C@H](F)CN1Cc1csc(C)n1` [2-I09, N-{[(2S,4S)-4-fluoro-1-[(2-methyl-1,3-thiazol-4-yl)methyl]pyrrolidin-2-yl]methyl}prop-2-enamide], the viability at 48 h, 25 µM was found to be 192%.
With `Cn1ccc(C(=O)CCl)c1` [10-D08, 2-chloro-1-(1-methyl-1H-pyrrol-3-yl)ethan-1-one] the figure was 1.8%; with `Cc1cc(C)c(NC(=O)C(C)Cl)c(Cl)c1` (centres unmarked) [6-E10, 2-chloro-N-(2-chloro-4,6-dimethylphenyl)propanamide], 109%.
The value for `O=C(CCl)N(Cc1ccc2c(c1)CCO2)C1CCCC1` [6-L11, 2-chloro-N-cyclopentyl-N-[(2,3-dihydro-1-benzofuran-5-yl)methyl]acetamide] was 0.358%.
With `CN(CC(=O)Nc1ccccc1C(F)(F)F)C(=O)CCl` [4-K05, 2-chloro-N-methyl-N-({[2-(trifluoromethyl)phenyl]carbamoyl}methyl)acetamide] the figure was 0.506%; with `C=CC(=O)NCCn1nnc2ccccc21` [2-N11, N-[2-(1H-1,2,3-benzotriazol-1-yl)ethyl]prop-2-enamide], 67.3%.
Regarding `Cc1cc(CC(C)NC(=O)C(C)Cl)n(-c2ccccc2)n1` (centres unmarked) [7-H21, 2-chloro-N-[1-(3-methyl-1-phenyl-1H-pyrazol-5-yl)propan-2-yl]propanamide], the viability at 48 h, 25 µM amounted to 80.1%.
The value for `CN1CCN(C(=O)Cc2cccc(NC(=O)CCl)c2)CC1` [5-C22, 2-chloro-N-{3-[2-(4-methylpiperazin-1-yl)-2-oxoethyl]phenyl}acetamide] was 1.44%; that for `CN(C(=O)c1ccccc1)C1CC2CCC(C1)N2C(=O)CCl` (centres unmarked) [5-J03, N-[8-(2-chloroacetyl)-8-azabicyclo[3.2.1]octan-3-yl]-N-methylbenzamide] was 1.62%; that for `CC(C)c1ccc(CCNC(=O)CCl)cc1` [6-I16, 2-chloro-N-{2-[4-(propan-2-yl)phenyl]ethyl}acetamide] was 71%.
For the compound `COc1ccc(-c2csc(NC(=O)CCl)n2)c(O)c1` [4-A11, 2-chloro-N-[4-(2-hydroxy-4-methoxyphenyl)-1,3-thiazol-2-yl]acetamide], the viability at 48 h, 25 µM was -0.257%.
With `COc1ccc(C=C(C#N)C(=O)Nc2cccnc2)cc1OC` [8-M05, 2-cyano-3-(3,4-dimethoxyphenyl)-N-(pyridin-3-yl)prop-2-enamide] the figure was 118%.
With `CC(NC(=O)C(C#N)=Cc1cc(O)ccc1[N+](=O)[O-])c1ccccc1` (centres unmarked) [9-D15, 2-cyano-3-(5-hydroxy-2-nitrophenyl)-N-(1-phenylethyl)prop-2-enamide] the figure was 101%.
For `CCCNC(=O)C(C#N)=Cc1ccns1` [9-G03, 2-cyano-N-propyl-3-(1,2-thiazol-5-yl)prop-2-enamide], the viability at 48 h, 25 µM is 128%.
With `O=C(c1cc(=O)[nH]c2ccc([N+](=O)[O-])cc12)N1CCSSCC1` [10-B11, 4-(1,2,5-dithiazepane-5-carbonyl)-6-nitro-1,2-dihydroquinolin-2-one] the figure was 111%; with `N#CC(=Cc1ccsc1)C(=O)Nc1cccc2ccccc12` [9-M09, 2-cyano-N-(naphthalen-1-yl)-3-(thiophen-3-yl)prop-2-enamide], 120%; with `C=CC(=O)Nc1cccc2c1CCN2C(C)=O` [1-F05, N-(1-acetyl-2,3-dihydro-1H-indol-4-yl)prop-2-enamide], 110%.
With `C=CC(=O)NCc1nc(C(C)(C)O)n[nH]1` [2-E15, N-{[3-(2-hydroxypropan-2-yl)-1H-1,2,4-triazol-5-yl]methyl}prop-2-enamide] the figure was 116%; with `C=CC(=O)NCc1nncn1-c1ccccc1` [1-G07, N-[(4-phenyl-4H-1,2,4-triazol-3-yl)methyl]prop-2-enamide], 77.3%; with `O=C(CCl)N1N=C(c2cccs2)CC1c1cccs1` (centres unmarked) [4-O18, 1-[3,5-bis(thiophen-2-yl)-4,5-dihydro-1H-pyrazol-1-yl]-2-chloroethan-1-one], 0.013%.
The value for `O=C1C=CC(=O)N1CCc1ccc(F)cc1` [10-C21, 1-[2-(4-fluorophenyl)ethyl]-2,5-dihydro-1H-pyrrole-2,5-dione] was 21.9%; that for `C=CC(=O)NCc1ccnn1C` [1-H20, N-[(1-methyl-1H-pyrazol-5-yl)methyl]prop-2-enamide] was 58%; that for `C=CC(=O)N(C)CC(=O)NC(C)(C)c1nc(C)cs1` [3-E14, N-methyl-N-({[2-(4-methyl-1,3-thiazol-2-yl)propan-2-yl]carbamoyl}methyl)prop-2-enamide] was 87.9%.
On to `Cc1noc(C)c1CC(=O)N1CCN(C(=O)C(C)Cl)CC1` (centres unmarked) [6-F11, 2-chloro-1-{4-[2-(3,5-dimethyl-1,2-oxazol-4-yl)acetyl]piperazin-1-yl}propan-1-one], for which the viability at 48 h, 25 µM came out at 106%.
The value for `N#CC(=Cc1ccccc1)C(=O)Nc1ccccc1F` [8-C13, 2-cyano-N-(2-fluorophenyl)-3-phenylprop-2-enamide] was 69.6%; that for `CCC(=O)NC1CCN(C(=O)CCl)C1` (centres unmarked) [5-G04, N-[1-(2-chloroacetyl)pyrrolidin-3-yl]propanamide] was 10.3%.
The value for `CC(Cl)C(=O)Nc1cc(C(C)(C)C)nn1-c1ccccc1` (centres unmarked) [4-H11, N-(3-tert-butyl-1-phenyl-1H-pyrazol-5-yl)-2-chloropropanamide] was 93%; that for `Cc1cc(C(=O)CCl)c(C)n1CCC(C)C` [10-L03, 2-chloro-1-[2,5-dimethyl-1-(3-methylbutyl)-1H-pyrrol-3-yl]ethan-1-one] was 76.2%.
The value for `C=CC(=O)N(C)CC(=O)N1CCC(c2nc3c(s2)CCCC3)CC1` [2-N04, N-methyl-N-{2-oxo-2-[4-(4,5,6,7-tetrahydro-1,3-benzothiazol-2-yl)piperidin-1-yl]ethyl}prop-2-enamide] was 92.5%.
